Assay results as given in ChEMBL document CHEMBL1201862, “PubChem BioAssay data set” (2004).
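Cultured in 96-well plates, cells were exposed to test compound for 48 hours across five concentrations. GI50 marks 50% less growth.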 Activity calls are given as the source filed them. Rule as the data show it: active = GI50 up to about 1.1 µM and inactive = higher.

How the values were obtained:
Assay in all cases: NCI anticancer screen, dose series, 48 h
786-0 = system: 786-0
A498 = system: A498
A549 = system: A549
ACHN = system: ACHN
CAKI-1 = system: CAKI-1
CCRF-CEM = system: CCRF-CEM
COLO 205 = system: COLO 205
DLD-1 = system: DLD-1
DMS-114 = system: DMS-114
DMS-273 = system: DMS-273
EKVX = system: EKVX
HCC 2998 = system: HCC 2998
HCT-116 = system: HCT-116
HL-60 = system: HL-60
HOP-18 = system: HOP-18
HOP-62 = system: HOP-62
HOP-92 = system: HOP-92
HT-29 = system: HT-29
IGROV-1 = system: IGROV-1
K562 = system: K562
KM-20L2 = system: KM-20L2
KM12 = system: KM12
LOX IMVI = system: LOX IMVI
LXFL 529 = system: LXFL 529
M14 = system: M14
M19-MEL = system: M19-MEL
Malme-3M = system: Malme-3M
NCI-H226 = system: NCI-H226
NCI-H23 = system: NCI-H23
NCI-H460 = system: NCI-H460
NCI-H522 = system: NCI-H522
OVCAR-3 = system: OVCAR-3
OVCAR-4 = system: OVCAR-4
OVCAR-5 = system: OVCAR-5
OVCAR-8 = system: OVCAR-8
RPMI-8226 = system: RPMI-8226
RXF 393 = system: RXF 393
SF-268 = system: SF-268
SF-295 = system: SF-295
SF-539 = system: SF-539
SK-MEL-28 = system: SK-MEL-28
SK-MEL-5 = system: SK-MEL-5
SK-OV-3 = system: SK-OV-3
SN12C = system: SN12C
SNB-19 = system: SNB-19
SNB-75 = system: SNB-75
SNB-78 = system: SNB-78
SW-620 = system: SW-620
TK-10 = system: TK-10
U-251 = system: U-251
UACC-257 = system: UACC-257
UACC-62 = system: UACC-62
UO-31 = system: UO-31
XF498 = system: XF498
HCT-15 = system: HCT-15
MOLT-4 = system: MOLT-4
SK-MEL-2 = system: SK-MEL-2
SR = system: SR

CC(=O)OC(/C=C1/C=CC(=O)O1)COC(=O)c1ccccc1 (stereo not given) [ACETYLMELODORINOL]
GI50 (786-0): > 31.2 µM (inactive)
GI50 (A498): > 31.2 µM (inactive)
GI50 (A549): > 31.2 µM (inactive)
GI50 (ACHN): > 31.2 µM (inactive)
GI50 (CAKI-1): > 31.2 µM (inactive)
GI50 (CCRF-CEM): > 31.2 µM (inactive)
GI50 (COLO 205): > 31.2 µM (inactive)
GI50 (DLD-1): > 31.2 µM (inactive)
GI50 (DMS-114): > 31.2 µM (inactive)
GI50 (DMS-273): > 31.2 µM (inactive)
GI50 (EKVX): > 31.2 µM (inactive)
GI50 (HCC 2998): > 31.2 µM (inactive)
GI50 (HCT-116): > 31.2 µM (inactive)
GI50 (HL-60): > 31.2 µM (inactive)
GI50 (HOP-18): > 31.2 µM (inactive)
GI50 (HOP-62): > 31.2 µM (inactive)
GI50 (HOP-92): > 31.2 µM (inactive)
GI50 (HT-29): > 31.2 µM (inactive)
GI50 (IGROV-1): > 31.2 µM (inactive)
GI50 (K562): 10.5 µM (inactive)
GI50 (KM-20L2): > 31.2 µM (inactive)
GI50 (KM12): > 31.2 µM (inactive)
GI50 (LOX IMVI): > 31.2 µM (inactive)
GI50 (LXFL 529): > 31.2 µM (inactive)
GI50 (M14): > 31.2 µM (inactive)
GI50 (M19-MEL): > 31.2 µM (inactive)
GI50 (Malme-3M): > 31.2 µM (inactive)
GI50 (NCI-H226): > 31.2 µM (inactive)
GI50 (NCI-H23): > 31.2 µM (inactive)
GI50 (NCI-H460): > 31.2 µM (inactive)
GI50 (NCI-H522): > 31.2 µM (inactive)
GI50 (OVCAR-3): > 31.2 µM (inactive)
GI50 (OVCAR-4): > 31.2 µM (inactive)
GI50 (OVCAR-5): > 31.2 µM (inactive)
GI50 (OVCAR-8): > 31.2 µM (inactive)
GI50 (RPMI-8226): > 31.2 µM (inactive)
GI50 (RXF 393): > 31.2 µM (inactive)
GI50 (SF-268): > 31.2 µM (inactive)
GI50 (SF-295): > 31.2 µM (inactive)
GI50 (SF-539): > 31.2 µM (inactive)
GI50 (SK-MEL-28): > 31.2 µM (inactive)
GI50 (SK-MEL-5): > 31.2 µM (inactive)
GI50 (SK-OV-3): > 31.2 µM (inactive)
GI50 (SN12C): > 31.2 µM (inactive)
GI50 (SNB-19): > 31.2 µM (inactive)
GI50 (SNB-75): > 31.2 µM (inactive)
GI50 (SNB-78): > 31.2 µM (inactive)
GI50 (SW-620): > 31.2 µM (inactive)
GI50 (TK-10): > 31.2 µM (inactive)
GI50 (U-251): > 31.2 µM (inactive)
GI50 (UACC-257): > 31.2 µM (inactive)
GI50 (UACC-62): > 31.2 µM (inactive)
GI50 (UO-31): > 31.2 µM (inactive)
GI50 (XF498): > 31.2 µM (inactive)

COC(=O)C(=O)C(C#N)c1ccc(CC#N)cc1 (stereo not given)
GI50 (786-0): > 100 µM (inactive)
GI50 (A549): > 100 µM (inactive)
GI50 (ACHN): > 100 µM (inactive)
GI50 (CAKI-1): > 100 µM (inactive)
GI50 (CCRF-CEM): > 100 µM (inactive)
GI50 (DLD-1): > 100 µM (inactive)
GI50 (DMS-273): > 100 µM (inactive)
GI50 (EKVX): > 100 µM (inactive)
GI50 (HCT-116): > 100 µM (inactive)
GI50 (HCT-15): > 100 µM
GI50 (HL-60): > 100 µM (inactive)
GI50 (HOP-92): > 100 µM (inactive)
GI50 (HT-29): > 100 µM (inactive)
GI50 (IGROV-1): > 100 µM (inactive)
GI50 (K562): > 100 µM (inactive)
GI50 (KM-20L2): > 100 µM (inactive)
GI50 (KM12): > 100 µM (inactive)
GI50 (LOX IMVI): > 100 µM (inactive)
GI50 (LXFL 529): > 100 µM (inactive)
GI50 (M14): > 100 µM (inactive)
GI50 (M19-MEL): > 100 µM (inactive)
GI50 (MOLT-4): > 100 µM (inactive)
GI50 (Malme-3M): > 100 µM (inactive)
GI50 (NCI-H226): > 100 µM (inactive)
GI50 (NCI-H23): > 100 µM (inactive)
GI50 (NCI-H522): > 100 µM (inactive)
GI50 (OVCAR-3): > 100 µM (inactive)
GI50 (RPMI-8226): > 100 µM (inactive)
GI50 (SF-268): > 100 µM (inactive)
GI50 (SF-295): > 100 µM (inactive)
GI50 (SF-539): > 100 µM (inactive)
GI50 (SK-MEL-28): > 100 µM (inactive)
GI50 (SK-MEL-2): > 100 µM (inactive)
GI50 (SK-OV-3): > 100 µM (inactive)
GI50 (SN12C): > 100 µM (inactive)
GI50 (SNB-19): > 100 µM (inactive)
GI50 (SNB-75): > 100 µM (inactive)
GI50 (SNB-78): > 100 µM (inactive)
GI50 (SR): > 100 µM (inactive)
GI50 (SW-620): > 100 µM (inactive)
GI50 (TK-10): > 100 µM (inactive)
GI50 (U-251): > 100 µM (inactive)
GI50 (UACC-257): > 100 µM (inactive)
GI50 (UACC-62): > 100 µM (inactive)
GI50 (UO-31): > 100 µM (inactive)
GI50 (XF498): > 100 µM (inactive)
